Consider 99 compounds from ChEMBL document CHEMBL3507680, “University of Dundee, Gates Library screen for HepG2 cell viability”.

This data set is described as follows: Human HepG2 cell viability assay in 384 well format. The arrangement: dose 125 nL, time 70.5 hour; cytotoxicity at 70.5 h: concentration not given beside the values. Particulars: HepG2 cells, read-out: Inhibition. The data set is classed as toxicity, cell-based.
On to `CCN1CCC2(CC1)NC(=O)c1cc(Br)ccc1-n1nnnc12`, for which the cytotoxicity at 70.5 h is -5.39%.
The result for `CC(C)C(C#N)N1CCN(Cc2nccn2CC(F)(F)F)CC1` (centres undefined) reads -10.7%.
For the compound `CCCS(=O)(=O)N1CCC(NCc2c(C)nn(C)c2OC)CC1`, the cytotoxicity at 70.5 h is -7.02%.
Regarding `Cc1cc(C(=O)NS(C)(=O)=O)c(C)n1-c1ccccc1`, the cytotoxicity at 70.5 h is -13.1%.
On to `O=C(CN1CCCCC1Cn1cccn1)NC1CCOCC1` (centres undefined), for which the cytotoxicity at 70.5 h was -6.42%.
Regarding `CCCc1nnc(NC(C)c2ccc3c(c2)OCCO3)o1` (centres undefined), the cytotoxicity at 70.5 h was 19.1%.
The result for `CC(=O)N1CCCn2nc(CNC(=O)N3CCCCC3)cc2C1` reads 19.2%; that for `Cc1nc(C)n(CC2CCCN2Cc2nc3ccccc3nc2C)n1` (centres undefined), 3.65%.
For the compound `O=C1[C@H]2CC[C@H](CN(Cc3ccccc3OC(F)F)C2)N1CC1CC1`, the cytotoxicity at 70.5 h is -7.82%.
Regarding `COc1c(C(=O)NC(C)CC(=O)c2cccs2)c(C)nn1C` (centres undefined), the cytotoxicity at 70.5 h is -0.066%.
For `CN(CCc1ccccn1)C(=O)c1cccs1`, the cytotoxicity at 70.5 h is -2.46%.
As for `Cc1cccc(C(=O)NCc2ccc(CS(N)(=O)=O)cc2)n1`, the cytotoxicity at 70.5 h was -16.5%.
The result for `CCN1CCN(c2ccc(C(=O)NC(C)CCOC)cc2)CC1` (centres undefined) reads 23.2%.
For `Cc1noc(C)c1CN1CCc2ncc(Cn3cccn3)n2CC1` the value was -5.78%; for `CCc1ccccc1NCc1nc2[nH]c(C)c(C)c(=O)n2n1`, 10.8%.
The result for `Cc1cccc(C(C(=O)NCC2(O)CCCCC2)N(C)C)c1` (centres undefined) reads 14.2%; that for `Cc1csc([C@@H]2C[C@@H]3CCN(C(=O)c4cnccn4)C[C@H]3O2)n1`, -4.76%; that for `COc1cccc(OCCc2cncc(C(N)=O)c2)c1`, -9.46%.
On to `COCCCC1(C(=O)O)CCCN(Cc2ccccc2C)C1` (centres undefined), for which the cytotoxicity at 70.5 h is -4.89%.
The result for `Cc1nn(C)c(Cl)c1C1CCCN1c1ncnc2[nH]ccc12` (centres undefined) reads 12.9%; that for `Cc1nc(C(=O)N2CCN(C(=O)C3CCC3)[C@@H]3CS(=O)(=O)C[C@@H]32)cs1`, 2.83%.
The result for `COCCN1CCC(CNC(=O)C2(c3ccccc3)CCC2)C1` (centres undefined) reads -3.28%.
The result for `CN(C)C(=O)c1n[nH]c2c1CN(CC1CCCCC1)C2` reads -2.71%; that for `CCOCC(O)CN1CCN(C(=O)c2ccc(N(C)C)nc2)CC1` (centres undefined), 1.39%.
As for `Cc1nnc2n1CCN(c1nc3ccccc3o1)C2`, the cytotoxicity at 70.5 h stood at 1.55%.
The result for `Cn1nccc1-c1cc(C2CCN(S(C)(=O)=O)CC2)ccn1` reads -7.68%.
For `CCC(C)N1CCc2c(C(=O)N3CCOCC3)n[nH]c2C1` (centres undefined) the value was -3.05%; for `CNC(=O)CCN(C)CC1(c2ccc(Br)cc2)CC1`, -0.48%.
The result for `CC(C)n1ccnc1CN1CCOC(CCc2ccccc2)C1` (centres undefined) reads -13.7%.
As to `O=C(NCCOc1ccc(C(F)(F)F)cn1)c1ccoc1`, the cytotoxicity at 70.5 h was -6.01%.
The result for `CC(C)=CCN1CCNC(=O)C1CC(=O)N1CCc2sccc2C1` (centres undefined) reads -3.67%.
For `O=C1NC2(CCN(Cc3ccccc3Cl)CC2)CC1c1ccccc1` (centres undefined), the cytotoxicity at 70.5 h was -9.33%.
For `CN(C)S(=O)(=O)N1CC[C@]2(C[C@H](OCc3ccccn3)CO2)C1` the value was -0.384%.
The result for `O=C(c1cccnc1-n1cccn1)N1CCN(CC2CC2)CC1` reads -11%; that for `Cc1ccc(CCNc2nccc(-c3cc(C(=O)O)ccn3)n2)o1`, -6.22%; that for `CCc1ccc(CN2C[C@H](OC)[C@H]3COC[C@H]32)o1`, -0.659%.
For `CCn1cnnc1CNC(=O)N1CCOCC1` the value was -13.2%; for `CC(C)C(C(=O)O)c1cccc(Cl)c1` (centres undefined), -7.66%; for `Cc1cc(C(=O)N(C)C2CCS(=O)(=O)C2)c2ccc(F)cc2n1` (centres undefined), 10.8%.
With `FC(F)(F)c1cc(C2CCCN(Cc3cccnc3)C2)n[nH]1` (centres undefined), the cytotoxicity at 70.5 h came out at 9.85%.
With `CS(=O)(=O)NC[C@H]1Cn2c(-c3ccc4c(c3)OCCO4)cnc2CO1`, the cytotoxicity at 70.5 h was -13.2%.
With `Cc1ccc(S(=O)(=O)N(C)Cc2nccs2)cc1N(C)C`, the cytotoxicity at 70.5 h turned out to be 6.76%.
`O=C(NC1CC1)[C@@H]1CCO[C@@H]2CCN(C3CCOCC3)C[C@@H]21`: the cytotoxicity at 70.5 h is -8.31%.
For `Cc1cc(CN(C)Cc2cnc3c(c2)c(C)nn3C)no1` the value was 8.45%; for `CCC1CN(C)c2ccccc2CN1C(=O)c1c[nH]c(=O)cc1C` (centres undefined), -11.3%; for `Cc1cc(C)n(CC(=O)Nc2cc(-c3ccncc3)[nH]n2)n1`, -4.82%.
The result for `CCc1c(C)nc2cc(-c3nccn3C)nn2c1N1CCCC(CO)C1` (centres undefined) reads 27.9%; that for `CC(NC(=O)CN1C=Nc2ccccc2S1(=O)=O)c1ccccc1` (centres undefined), -9.29%.
For `CNC(=O)c1cc2c(nc1N(C)C)CCN(S(=O)(=O)CC(C)C)CC2` the value was -12.2%; for `O=S(=O)(C1CC1)N1CCCC2(COCCN(c3nncs3)C2)C1` (centres undefined), 12.7%; for `CC1(C)OCC2(CO1)CN(S(=O)(=O)c1ccc(Cl)s1)C2`, -1.76%.
As to `COCC(=O)N1CCC2(COCc3cnc(-c4ccccc4)nc32)C1` (centres undefined), the cytotoxicity at 70.5 h was -3.58%.
The result for `CNC(=O)C1CN(C(=O)Cc2ccc(OC)cc2)Cc2cn(C)nc21` (centres undefined) reads -7.07%; that for `Cc1ccc(CN2C[C@@H]3CCCO[C@@H]3[C@H](NS(C)(=O)=O)C2)o1`, -9.45%.
For `Cc1ccc(CS(=O)(=O)CC(=O)NCc2ccccc2F)cc1` the value was -15.5%.
The result for `O=C(Cc1ccccc1)N1CCC(c2nnc(-c3ccccn3)o2)CC1` reads 21.6%.
As for `COc1nn(C)cc1C(=O)NCC1(O)CCOCC1`, the cytotoxicity at 70.5 h is -3.26%.
For `O=C(Cc1ccsc1)N1CCC(c2noc(-c3ccncc3)n2)CC1` the value was -0.304%.
For `CCSCc1nc(O)c2nnn(C3CCN(Cc4ccoc4)CC3)c2n1` the value was -14.9%; for `CC(C)c1ocnc1C(=O)NC(c1nnc2n1CCNCC2)C(C)C` (centres undefined), -16.6%; for `CNC(=O)c1cc(C2CCCN2)n[nH]1` (centres undefined), -3.32%.
For `CCNC(=O)N1CCC(n2ccc(C(F)(F)F)n2)CC1` the value was 38.9%.
As for `CCN(CC)C(=O)c1nc2c(s1)CCN(Cc1cccc(OC)c1)CC2`, the cytotoxicity at 70.5 h is -11.2%.
Regarding `CC1Cc2ccccc2N1C(=O)Cn1nc(-c2cccs2)cc(N)c1=O` (centres undefined), the cytotoxicity at 70.5 h was -3.41%.
Take `Cn1ccnc1SCc1nc(C(C)(C)NC(=O)OC(C)(C)C)no1`: the cytotoxicity at 70.5 h was found to be 12%.
For `COc1ccccc1C1(CNc2snc(Cl)c2C#N)CCOCC1` the value was -4.49%; for `COCC(=O)N(Cc1ccc2cc[nH]c2c1)C1CC1`, -21%.
For `CC(CS(C)(=O)=O)NC(=O)N1CC2(CCCC2)c2ccccc21` (centres undefined) the value was -2.3%; for `O=C(CCn1ccc(=O)[nH]c1=O)N1CCC(Oc2ccccn2)CC1`, -4.88%; for `COCC(=O)NCc1cnc(C)nc1-c1cn(C)c2ccc(OC)cc12`, -7.48%.
The result for `Cc1nnc(CN2CCN(CC(O)c3ccccc3)CC2)o1` (centres undefined) reads -1.4%.
Turning to `Cc1occc1C(=O)Nc1cccc(C(=O)OCC2CCCN2)c1` (centres undefined), the cytotoxicity at 70.5 h turned out to be 23.7%.
The result for `CN(C(=O)c1ccc(OCC(F)F)nc1)c1ccc2c(c1)CCO2` reads -4.77%; that for `Cc1ncc(CN2CCC(O)(c3ccccc3F)CC2)cn1`, -0.616%; that for `CC(C)O[C@H]1CN(C(=O)CCN2CCCCO2)C[C@@H]1O`, 11.2%.
As for `Cc1cccc2nc(CN3CCCC3Cn3cccn3)cn12` (centres undefined), the cytotoxicity at 70.5 h is -10.8%.
On to `CC(C)Cc1cc(C(=O)N2CCC[C@H]2C(=O)N2CCOCC2)on1`, for which the cytotoxicity at 70.5 h is -9.69%.
For the compound `CC(=O)c1cc(CC(=O)N2CCCC2c2nc(C(C)C)no2)cs1` (centres undefined), the cytotoxicity at 70.5 h is -3.24%.
Consider `CC(NS(C)(=O)=O)C(=O)N(C)Cc1csc(-c2cccs2)n1` (centres undefined), for which the cytotoxicity at 70.5 h was -13.4%.
With `Cc1cc(O)nc(C2CN(CCO)CCO2)n1` (centres undefined), the cytotoxicity at 70.5 h is 8.3%.
With `CN1CCC(N(C)CCC(=O)N2CCC(Cc3ccc(F)cc3)CC2)C1` (centres undefined), the cytotoxicity at 70.5 h came out at 24.2%.
The result for `Cc1csc2c(=O)n(C(C)Cc3cccnc3)cnc12` (centres undefined) reads -9.53%; that for `Cc1noc(Cl)c1CC(=O)N1CCCC1Cn1cccn1` (centres undefined), 2.85%; that for `O=C(CCc1ccccn1)N1CCSC2(CCCCC2)C1`, 3.22%.
Turning to `O=C1CSC(c2cccs2)c2cnn(C3CCCC3)c2N1` (centres undefined), the cytotoxicity at 70.5 h was -5.69%.
For the compound `Fc1cccc(N2CCCC3(CN(Cc4ccccn4)CCO3)C2)c1` (centres undefined), the cytotoxicity at 70.5 h was -1.7%.
The result for `COCc1ncc(CN2CCN(C)C(=O)C2C)cn1` (centres undefined) reads -13.5%.
As for `c1cncc(C2COC3(CCN(Cc4cccs4)CC3)C2)c1` (centres undefined), the cytotoxicity at 70.5 h was -6.54%.
`Cc1nc(CN2CCC3(CC2)C(=O)N(C)CCN3C)cs1`: the cytotoxicity at 70.5 h is -4.7%.
`C[C@H]1C[C@@H]2CCN(Cc3ccccn3)C[C@H]2O1`: the cytotoxicity at 70.5 h was -0.0314%.
For `c1cnnc(N2CCCC2CNCc2ccsc2)c1` (centres undefined) the value was -10.1%; for `N#Cc1cccc(CN2C[C@H](NC(=O)C3CC3)[C@H]3OCCC[C@H]32)c1`, -14%; for `Cc1ncsc1C(=O)NC1CCN(CC(N)=O)CC1`, -6.12%.
With `CC(C)(C)C(=O)N1CCC(c2nc(O)cc(-c3ccncc3)n2)CC1`, the cytotoxicity at 70.5 h was -1.05%.
For `CC(C)C(N)CNS(=O)(=O)Cc1cccc2cccnc12` (centres undefined) the value was -7.49%; for `COCC1CCN(Cc2cc(O)c3c(C)ccc(C)c3n2)CC1`, 17.7%.
The result for `COc1ccccc1N1CCN(C(=O)COc2c(C)occc2=O)CC1` reads 6.76%; that for `O=C(c1cnccn1)N1CCN2C[C@H](Oc3cccc(F)c3)C[C@H]2C1`, -2.2%.
For `O=C(c1ccccn1)N1CCc2ncc(Cn3cccn3)n2CC1`, the cytotoxicity at 70.5 h was -7.08%.
